{"source": "ChEMBL document CHEMBL1201862", "about": "“PubChem BioAssay data set” (2004)", "assay_in_all_cases": "DTP human tumour cell line panel, 48 h", "key": {"HL-60": {"tested_on": "HL-60"}, "HT-29": {"tested_on": "HT-29"}, "HOP-62": {"tested_on": "HOP-62"}, "NCI-H460": {"tested_on": "NCI-H460"}, "CAKI-1": {"tested_on": "CAKI-1"}, "HOP-92": {"tested_on": "HOP-92"}, "UACC-257": {"tested_on": "UACC-257"}, "SK-MEL-5": {"tested_on": "SK-MEL-5"}, "SK-MEL-2": {"tested_on": "SK-MEL-2"}, "SF-539": {"tested_on": "SF-539"}, "M14": {"tested_on": "M14"}, "SF-268": {"tested_on": "SF-268"}, "OVCAR-3": {"tested_on": "OVCAR-3"}, "HCC 2998": {"tested_on": "HCC 2998"}, "A549": {"tested_on": "A549"}, "NCI-H522": {"tested_on": "NCI-H522"}, "MDA-MB-231": {"tested_on": "MDA-MB-231"}, "MDA-MB-435": {"tested_on": "MDA-MB-435"}, "SNB-75": {"tested_on": "SNB-75"}}, "note": "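Compound exposure: 48 hours, 5 concentrations, 96-well plates. Abbreviation: GI50, concentration required for 50% inhibition of growth.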 Calls of active or inactive are those of the source. Rule as the data show it: active = GI50 up to about 1.1 µM and inactive = higher."}
{"smiles": "CCOC(=O)/C(=C/c1ccccc1)N(CC)CC", "values": [{"measurement": "GI50", "setting": "HL-60", "value": "> 100 µM (inactive)"}, {"measurement": "GI50", "setting": "HT-29", "value": "> 100 µM (inactive)"}, {"measurement": "GI50", "setting": "HOP-62", "value": "> 100 µM (inactive)"}, {"measurement": "GI50", "setting": "NCI-H460", "value": "> 100 µM (inactive)"}, {"measurement": "GI50", "setting": "CAKI-1", "value": "> 100 µM (inactive)"}, {"measurement": "GI50", "setting": "HOP-92", "value": "> 100 µM (inactive)"}, {"measurement": "GI50", "setting": "UACC-257", "value": "> 100 µM (inactive)"}, {"measurement": "GI50", "setting": "SK-MEL-5", "value": "> 100 µM (inactive)"}, {"measurement": "GI50", "setting": "SK-MEL-2", "value": "> 100 µM (inactive)"}, {"measurement": "GI50", "setting": "SF-539", "value": "> 100 µM (inactive)"}, {"measurement": "GI50", "setting": "M14", "value": "> 100 µM (inactive)"}, {"measurement": "GI50", "setting": "SF-268", "value": "> 100 µM (inactive)"}, {"measurement": "GI50", "setting": "OVCAR-3", "value": "> 100 µM (inactive)"}, {"measurement": "GI50", "setting": "HCC 2998", "value": "> 100 µM (inactive)"}, {"measurement": "GI50", "setting": "A549", "value": "> 100 µM (inactive)"}, {"measurement": "GI50", "setting": "NCI-H522", "value": "> 100 µM (inactive)"}]}
{"smiles": "CC(=O)NC1C(OC2C(CO)OC(OCC3OC(n4ccc(N)nc4=O)C(O)C3O)C(NC(C)=O)C2O)OC(CO)C(O)C1O", "note": "(stereo unspecified)", "values": [{"measurement": "GI50", "setting": "HL-60", "value": "> 34.6 µM (inactive)"}, {"measurement": "GI50", "setting": "HT-29", "value": "> 100 µM (inactive)"}, {"measurement": "GI50", "setting": "MDA-MB-231", "value": "> 100 µM (inactive)"}, {"measurement": "GI50", "setting": "HOP-62", "value": "> 100 µM (inactive)"}, {"measurement": "GI50", "setting": "MDA-MB-435", "value": "> 100 µM (inactive)"}, {"measurement": "GI50", "setting": "NCI-H460", "value": "> 89.3 µM (inactive)"}, {"measurement": "GI50", "setting": "SNB-75", "value": "> 100 µM (inactive)"}, {"measurement": "GI50", "setting": "CAKI-1", "value": "> 100 µM (inactive)"}, {"measurement": "GI50", "setting": "HOP-92", "value": "> 100 µM (inactive)"}, {"measurement": "GI50", "setting": "UACC-257", "value": "> 100 µM (inactive)"}, {"measurement": "GI50", "setting": "SK-MEL-5", "value": "> 100 µM (inactive)"}, {"measurement": "GI50", "setting": "SK-MEL-2", "value": "> 100 µM (inactive)"}, {"measurement": "GI50", "setting": "SF-539", "value": "> 100 µM (inactive)"}, {"measurement": "GI50", "setting": "M14", "value": "> 100 µM (inactive)"}, {"measurement": "GI50", "setting": "SF-268", "value": "> 100 µM (inactive)"}, {"measurement": "GI50", "setting": "OVCAR-3", "value": "> 100 µM (inactive)"}, {"measurement": "GI50", "setting": "A549", "value": "> 100 µM (inactive)"}, {"measurement": "GI50", "setting": "NCI-H522", "value": "9.2 µM (inactive)"}]}
{"smiles": "CC12Oc3ccc4ccccc4c3CC1Cc1c(ccc3ccccc13)O2", "note": "(stereo unspecified)", "values": [{"measurement": "GI50", "setting": "HL-60", "value": "> 100 µM (inactive)"}, {"measurement": "GI50", "setting": "HT-29", "value": "> 100 µM (inactive)"}, {"measurement": "GI50", "setting": "HOP-62", "value": "53 µM (inactive)"}, {"measurement": "GI50", "setting": "NCI-H460", "value": "82.4 µM (inactive)"}, {"measurement": "GI50", "setting": "SNB-75", "value": "7.08 µM (inactive)"}, {"measurement": "GI50", "setting": "CAKI-1", "value": "48 µM (inactive)"}, {"measurement": "GI50", "setting": "HOP-92", "value": "0.124 µM (active)"}, {"measurement": "GI50", "setting": "UACC-257", "value": "50.4 µM (inactive)"}, {"measurement": "GI50", "setting": "SK-MEL-2", "value": "48 µM (inactive)"}, {"measurement": "GI50", "setting": "SF-539", "value": "60.4 µM (inactive)"}, {"measurement": "GI50", "setting": "M14", "value": "38.9 µM (inactive)"}, {"measurement": "GI50", "setting": "SF-268", "value": "> 100 µM (inactive)"}, {"measurement": "GI50", "setting": "HCC 2998", "value": "> 100 µM (inactive)"}, {"measurement": "GI50", "setting": "A549", "value": "> 100 µM (inactive)"}, {"measurement": "GI50", "setting": "NCI-H522", "value": "70 µM (inactive)"}]}
{"smiles": "N#C/C(=C\\c1ccc[nH]1)C(=O)c1ccccc1", "values": [{"measurement": "GI50", "setting": "HL-60", "value": "> 100 µM (inactive)"}, {"measurement": "GI50", "setting": "HT-29", "value": "> 100 µM (inactive)"}, {"measurement": "GI50", "setting": "HOP-62", "value": "> 100 µM (inactive)"}, {"measurement": "GI50", "setting": "NCI-H460", "value": "> 100 µM (inactive)"}, {"measurement": "GI50", "setting": "SNB-75", "value": "35.8 µM (inactive)"}, {"measurement": "GI50", "setting": "CAKI-1", "value": "> 100 µM (inactive)"}, {"measurement": "GI50", "setting": "HOP-92", "value": "70.8 µM (inactive)"}, {"measurement": "GI50", "setting": "UACC-257", "value": "> 100 µM (inactive)"}, {"measurement": "GI50", "setting": "SK-MEL-5", "value": "> 100 µM (inactive)"}, {"measurement": "GI50", "setting": "SK-MEL-2", "value": "> 100 µM (inactive)"}, {"measurement": "GI50", "setting": "SF-539", "value": "> 100 µM (inactive)"}, {"measurement": "GI50", "setting": "M14", "value": "> 100 µM (inactive)"}, {"measurement": "GI50", "setting": "SF-268", "value": "> 100 µM (inactive)"}, {"measurement": "GI50", "setting": "OVCAR-3", "value": "> 100 µM (inactive)"}, {"measurement": "GI50", "setting": "HCC 2998", "value": "> 100 µM (inactive)"}, {"measurement": "GI50", "setting": "A549", "value": "> 100 µM (inactive)"}, {"measurement": "GI50", "setting": "NCI-H522", "value": "> 100 µM (inactive)"}]}
